The values that follow come from PubChem BioAssay (NCI).

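96-well plates; 48 h exposure; 5 concentrations. Endpoints by linear interpolation between flanking doses. Not reached: highest tested concentration assigned. At the GI50, growth is halved. TGI marks complete inhibition of growth.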 Some results are limits rather than exact numbers.

Among the test systems are COLO 205 colon; CCRF-CEM leukemia; HT29 colon; A549 NSCLC; OVCAR-3 ovarian; TK-10 renal; UACC-257 melanoma; SK-MEL-2 melanoma; OVCAR-4 ovarian; UACC-62 melanoma.
What all share (test): NCI-60 cell line screen, 48 h

For the molecule `CC(c1ccccc1)/[N+]([O-])=C/c1ccccc1` (configuration not stated), the TGI in the assay with COLO 205 colon, in the assay on CCRF-CEM leukemia, in the assay with HT29 colon, in the assay on A549 NSCLC, in the assay with OVCAR-3 ovarian and in the assay on TK-10 renal was greater than 100 µM throughout. Further, the TGI in the assay with UACC-257 melanoma is greater than 100 µM.
Consider `CC1OC1C(=O)C1(O)C(C)C(O)C23OC2(C(O)c2c(O)cccc2C3=O)C1O` (configuration not stated), for which the TGI with COLO 205 colon was 0.223 µM; in the assay with HT29 colon, 0.629 µM; in the assay on A549 NSCLC, 0.519 µM; in the assay with SK-MEL-2 melanoma, 0.413 µM; in the assay on OVCAR-4 ovarian, 0.0982 µM; in the assay on UACC-62 melanoma, 0.646 µM. The figures for the TGI with OVCAR-3 ovarian and in the assay with UACC-257 melanoma were 0.352 µM and 0.714 µM, respectively.
On to `CN1CCN(c2cc(-c3cc4ccccc4o3)oc(=O)c2C#N)CC1`, for which the TGI in the assay with COLO 205 colon, in the assay on CCRF-CEM leukemia, in the assay with HT29 colon, in the assay with A549 NSCLC, with SK-MEL-2 melanoma and in the assay on OVCAR-4 ovarian was greater than 100 µM in each case. The TGI with TK-10 renal and in the assay with UACC-257 melanoma was greater than 100 µM in each case.
Take `O=C(NN1C(=O)CSC1c1ccc(C(F)(F)F)cc1)c1ccncc1` (configuration not stated): the TGI in the assay on CCRF-CEM leukemia, with HT29 colon, with A549 NSCLC, with SK-MEL-2 melanoma, with OVCAR-4 ovarian and in the assay on UACC-62 melanoma was greater than 100 µM in each case. Moreover, the TGI with OVCAR-3 ovarian and with UACC-257 melanoma was greater than 100 µM in each case.
As to `O=C(O)CC1OCC=C2CN3CCC45C6=CC(=O)C(=O)C([N+](=O)[O-])=C6NC4C1C2CC35` (configuration not stated), the TGI in the assay with COLO 205 colon was greater than 100 µM; in the assay with CCRF-CEM leukemia, 61.8 µM; in the assay with HT29 colon, greater than 100 µM; in the assay on A549 NSCLC it was greater than 100 µM; with SK-MEL-2 melanoma, greater than 100 µM; in the assay with OVCAR-4 ovarian it was greater than 100 µM. Also, the TGI with UACC-62 melanoma, in the assay on OVCAR-3 ovarian, with TK-10 renal and with UACC-257 melanoma was greater than 100 µM throughout.
As for `C[C@]12CCc3sc(Nc4ccc(O)cc4)nc3C1=CC[C@@H]1[C@@H]2CC[C@]2(C)C(=O)CC[C@@H]12`, the GI50 in the assay on COLO 205 colon was 2 µM; with CCRF-CEM leukemia, 2.47 µM; with HT29 colon, 2.13 µM; in the assay on A549 NSCLC it was 4.42 µM; with SK-MEL-2 melanoma, 6.98 µM; with UACC-62 melanoma, 1.76 µM. Besides, the GI50 was 1.71 µM in the assay on OVCAR-3 ovarian, 2.01 µM in the assay on TK-10 renal and 1.86 µM with UACC-257 melanoma. Also, the TGI is 3.9 µM in the assay with COLO 205 colon; greater than 100 µM with CCRF-CEM leukemia; 5.59 µM with HT29 colon; greater than 100 µM in the assay on A549 NSCLC; greater than 100 µM in the assay with SK-MEL-2 melanoma; 4.02 µM with UACC-62 melanoma. Moreover, the TGI in the assay with OVCAR-3 ovarian came out at 3.38 µM; with TK-10 renal, 4.4 µM; in the assay on UACC-257 melanoma it was 4.62 µM.
Regarding `CC(CCC(=O)O)C1CCC2C3C(O)CC4CC(O)CCC4(C)C3CC(O)C12C` (configuration not stated), the TGI in the assay on COLO 205 colon, in the assay on CCRF-CEM leukemia, with HT29 colon, with A549 NSCLC, with SK-MEL-2 melanoma and with OVCAR-4 ovarian was greater than 100 µM each time. For the same molecule, the TGI with UACC-62 melanoma, in the assay on OVCAR-3 ovarian, in the assay with TK-10 renal and with UACC-257 melanoma was greater than 100 µM throughout.
On to `O=C(O)CC1(CC(=O)O)Nc2ccccc2SC1=O`, for which the TGI in the assay with COLO 205 colon, in the assay with CCRF-CEM leukemia, in the assay on HT29 colon, with A549 NSCLC, in the assay with SK-MEL-2 melanoma and in the assay on OVCAR-4 ovarian was greater than 100 µM each time. For the same molecule, the TGI in the assay on UACC-62 melanoma, with OVCAR-3 ovarian, in the assay on TK-10 renal and in the assay on UACC-257 melanoma was greater than 100 µM each time.
In the case of `C/C(=N\NC(=S)Nc1ccc(C)cc1)c1nc2ncccc2[nH]1`, the TGI with COLO 205 colon turned out to be 17.6 µM; in the assay with CCRF-CEM leukemia it was 11.5 µM; in the assay with HT29 colon, 14.5 µM; in the assay with A549 NSCLC, 44.7 µM; with SK-MEL-2 melanoma, 25.4 µM; in the assay on OVCAR-4 ovarian, 16.7 µM. The TGI with UACC-62 melanoma turned out to be 15 µM; in the assay on OVCAR-3 ovarian it was 9.71 µM; with TK-10 renal, 37 µM; in the assay with UACC-257 melanoma, 9.48 µM.
As for `COc1ccc(-c2c3c(nc4nc(SC)nc(SC)c24)CCCC3)cc1OC`, the TGI is greater than 100 µM in the assay on COLO 205 colon; 90.2 µM in the assay on CCRF-CEM leukemia; greater than 100 µM with HT29 colon; greater than 100 µM in the assay with A549 NSCLC; greater than 100 µM with SK-MEL-2 melanoma; greater than 100 µM in the assay on UACC-62 melanoma. Besides, the TGI in the assay with OVCAR-3 ovarian, with TK-10 renal and with UACC-257 melanoma was greater than 100 µM throughout.
In the case of `CCSc1nc(=[N+]2CCCC2)ss1`, the TGI in the assay on COLO 205 colon is greater than 49.3 µM; with CCRF-CEM leukemia it was 13.2 µM; in the assay with HT29 colon, greater than 92.1 µM; with A549 NSCLC, greater than 100 µM; in the assay on SK-MEL-2 melanoma it was greater than 100 µM; with OVCAR-4 ovarian, greater than 100 µM. The TGI in the assay with UACC-62 melanoma is 23.9 µM; in the assay on OVCAR-3 ovarian, 48.2 µM; with TK-10 renal, greater than 100 µM; in the assay with UACC-257 melanoma, greater than 100 µM.
With `COc1cc2c(cc1OC)C(C)N(C)c1c-2c(OC(C)=O)cc2cc(OC)c(OC)cc12` (configuration not stated), the TGI in the assay with COLO 205 colon is 20 µM; in the assay on CCRF-CEM leukemia, greater than 100 µM; in the assay with HT29 colon, greater than 58.9 µM; with A549 NSCLC, greater than 69.2 µM; in the assay with SK-MEL-2 melanoma, 30.2 µM; with OVCAR-4 ovarian it was greater than 45.4 µM. The TGI with UACC-62 melanoma was 39.3 µM; in the assay on OVCAR-3 ovarian it was greater than 100 µM; with TK-10 renal, greater than 100 µM; with UACC-257 melanoma, 24.2 µM.
For `O=C1OCC/C1=C/c1ccc(N=Nc2c(O)ccc3ccccc23)cc1`, the TGI in the assay with COLO 205 colon came to 58 µM; with CCRF-CEM leukemia, 53.5 µM; with HT29 colon it was 35 µM; in the assay on A549 NSCLC, 44.7 µM; in the assay with SK-MEL-2 melanoma, 55.2 µM; with OVCAR-4 ovarian it was 37.4 µM. For the same molecule, the TGI with UACC-62 melanoma amounted to 56.5 µM; in the assay with OVCAR-3 ovarian, 34.4 µM; with TK-10 renal it was 35.3 µM; in the assay on UACC-257 melanoma, 40.3 µM.
Turning to `NC(=S)N/N=C1\c2ccccc2CCC1CCC1(O)CCc2ccccc2C1=O` (configuration not stated), the TGI with COLO 205 colon is 36.7 µM; in the assay on CCRF-CEM leukemia, 86 µM; in the assay with HT29 colon, 45.9 µM; in the assay on A549 NSCLC, greater than 100 µM; in the assay with OVCAR-4 ovarian, greater than 100 µM; with UACC-62 melanoma it was 31.7 µM. In addition, the TGI was determined as 36.3 µM with OVCAR-3 ovarian, 54.3 µM in the assay on TK-10 renal and 33.3 µM with UACC-257 melanoma.
Turning to `CCc1nnc(-c2nsc3ccccc23)s1`, the TGI in the assay on COLO 205 colon, in the assay with CCRF-CEM leukemia, in the assay on HT29 colon, in the assay on A549 NSCLC, in the assay with SK-MEL-2 melanoma and in the assay with OVCAR-4 ovarian was greater than 100 µM each time. Moreover, the TGI in the assay with UACC-62 melanoma, in the assay with OVCAR-3 ovarian, with TK-10 renal and in the assay on UACC-257 melanoma was greater than 100 µM throughout.
